# Data published in patent US6015820A, “4-Aryl-thio-pyridin-2(1H)-ones, medicines containing them and their uses in the treatment of illnesses linked to HIV” (priority 1995, dated 2000).
# Assays:
# [1] = target: T1, endogenous IT of isolated virion (Human immunodeficiency virus type 1 group M subtype B, UniProt P03367); assay: inhibition of the endogenous IT on the isolated virion; assay type: biochemical; settings: for IT activity in cpm: Table 7, 10 μM
# T1 construct: endogenous in cells; host or cells: isolated HIV-1 virions
# Method: After having been incubated with the various inhibitors, the viral supernatants (200 μl) were deposited in the filtering part of a VectaSpin tube (WHATMAN) fitted with an ANAPORE membrane of porosity 0.02 μm. For 10 minutes they were subjected to centrifugation, the acceleration of which reached 6000 g at the filtering membrane. The viral residuums thereby obtained (10-15 μl ) were washed 3 times under the same conditions with 500 μl of RPMI then restored to their initial volumes with RPMI containing 10% of CFS.
# IT of HIV-2 = IT of HIV-2 (Human immunodeficiency virus type 2 (ISOLATE ROD), UniProt P04584); assay: inhibition of the inverse transcriptase of HIV-2; assay type: biochemical; settings: at concentrations at which the IT of HIV-1 was well inhibited (FIG. 9)
# Chain of IT of HIV-2 (P04584 613-1171): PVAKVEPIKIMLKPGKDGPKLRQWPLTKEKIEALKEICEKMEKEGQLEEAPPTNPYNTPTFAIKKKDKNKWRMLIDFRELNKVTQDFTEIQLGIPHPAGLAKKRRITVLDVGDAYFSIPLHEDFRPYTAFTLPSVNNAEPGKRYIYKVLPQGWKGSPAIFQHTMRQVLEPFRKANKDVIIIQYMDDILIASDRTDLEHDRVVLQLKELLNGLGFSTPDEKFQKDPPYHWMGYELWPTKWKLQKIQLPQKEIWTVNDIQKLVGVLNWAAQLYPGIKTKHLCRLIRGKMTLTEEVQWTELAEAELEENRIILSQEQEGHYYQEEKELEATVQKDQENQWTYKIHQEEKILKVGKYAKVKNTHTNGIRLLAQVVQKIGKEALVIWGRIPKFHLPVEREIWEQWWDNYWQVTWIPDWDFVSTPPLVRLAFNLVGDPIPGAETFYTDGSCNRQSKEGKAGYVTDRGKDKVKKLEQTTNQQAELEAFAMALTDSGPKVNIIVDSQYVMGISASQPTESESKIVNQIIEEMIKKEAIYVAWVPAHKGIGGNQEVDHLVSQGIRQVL
# Method: The system for the expression of the IT of HIV-2 in E.coli (B. Muller et al. (1991 J. Biol. Chem. 266, 14708-14713) was provided by Dr. R. Goody. The IT of the HIV-2 was purified in the same way as the IT of the HIV-1.
# Incubation was carried out at 37° C. for 10 minutes in the presence of various matrix-primers.
# a) Poly C-oligo dG: the reaction mixture contained a final volume of 0.05 ml, Tris-HCl 50 mM pH 8.0, MgCl2 5 mM, dithiothreitol 4 mM, 0.48 A260 /ml of poly C-oligo dG (5:1), 1.0 μCi of [^3 H]dGTP (28 Ci/mmole), dGTP 2 μM, KCl 80 mM, 1 μg of bovine serum albumin and IT 20-50 nM.
# b) Poly A-oligo dT: the same conditions as in a), except that 0.48 A260 /ml of poly A-oligo dT (5:1), 0.5 μCi of [^3 H]dTTP (46 Ci/mmole), dTTP 20 μM were used.
# The reactions were stopped by adding in the cold 1 ml of 10% trichloroacetic acid plus sodium pyrophosphate 0.1 M. The precipitates were filtered through nitrocellulose membranes, washed with 2% trichloroacetic acid, dried and counted in a PPO/POPOP/toluene scintillation mixture.
# All the compounds were dissolved in dimethyl#sulphoxide (DMSO). The test samples were prepared in the presence of the same final concentration of DMSO. IC50 is the concentration required to inhibit the activity of the IT of the recombinant HIV-1 by 50%.
# HIV-1 IIIB = assay: anti-HIV-1 activity, HIV-1 IIIB/PBMC; assay type: cell-based; settings: Human immunodeficiency virus 1, Table 4
# Method: The virus production was measured by quantifying the activity of the inverse transcriptase associated with viral particles released into the culture supernatant. In short, cells were infected with 100 TCID50 for 30 minutes; after adsorption of the virus, unbound particles were removed by two washings and the cells were cultivated in the presence of different concentrations of the compounds tested for 5 days before determining the viral production. The concentration inhibiting 50% of the viral multiplication (IC50) came from the computer plot of the median effect of the dose effect results (Chou et al. Elsevier Science Publishers, Cambridge U.K. (1985), 19-28).
# Thirty two compounds according to the invention were studied for their anti-HIV-1 biological activity. […] This compound was then tested with other colonies and other cell lines (Table 4).
# PBMC = assay: cytotoxicity on PBMC; assay type: cell-based; settings: Table 4, 7200 min
# Method: (§1) In parallel experiments, the cytotoxicity of the molecules was measured on non-infected cells, after an incubation of 5 days in the presence of these molecules, by using a […] titration (MTT test) based on the ability of the mitochondrial dehydrogenases of the living cells to reduce 3-(4,5-dimethylthiazol-2-yl)-2,5-diphenyltetrazolium bromide in formazan (Mosmann et al. J. Immunol. Methods ([…]), 65, 55-63). The concentration cytotoxic at 50% (CC50) is the concentration at which the DO540 has been reduced to half and is calculated by using the program mentioned above.
# cytotoxicity on PBMC = assay type: cell-based; settings: human; Table 4; line HIV-1 IIIB/PBMC
# Method: as §1
# [2] = cytotoxicity on MT4 cells; assay type: cell-based; settings: human, Table 4, line HIV-1 IIIB/MT4
# Method: as §1
smiles,measurement,setting,value
"CCc1c(C)[nH]c(=O)c([N+](=O)[O-])c1Sc1cc(C)cc(C)c1 [Compound 7c, 5-ethyl-6-methyl-3-nitro-4-(3', 5'-dimethylphenyl)thio-pyridin-2(1H)-one]",IT activity in cpm,"[1]; first (unheaded) value column, isolated virion control 813",32 cpm
same,IT activity in cpm,"[1]; second (unheaded) value column, isolated virion control 809",852 cpm
same,penetration of envelope and capsid and blocking of IT,[1]; isolated virions incubated 3 hours,appeared to penetrate the envelope and the viral capsid to fix itself onto the IT and to block its activity
same,effect on activity of the IT of HIV-2,IT of HIV-2,not affected
same,IC50,HIV-1 IIIB,< 0.03 nM
same,CC50,PBMC; line HIV-1 6 type D/PBMC,> 10 µM
same,CC50,PBMC; line HIV-1 4200 type E/PBMC,> 10 µM
same,CC50,PBMC; line HIV-2 D194/PBMC,> 10 µM
same,CC50 at 120 h,cytotoxicity on PBMC,> 10 µM
same,CC50 at 120 h,[2],> 10 µM
